From patent US8828997B2, “2,3-dihydro-1H-imidazo(1,2-a)pyrimidin-5-one derivatives, preparation thereof, and pharmaceutical use thereof” (Sanofi, priority 2009, dated 2014)

Legend:
[1] = tested on: AKT protein phosphorylated on serine 473 (P-AKT-S473) in PC3 human prostate carcinoma cells; experiment: pAKT expression in PC3 human prostate carcinoma cells measured by MSD Multi-spot Biomarker detection (test B); assay type: cell-based; conditions: Homo sapiens, PC-3, P-AKT-S473, PC3 cells, MSD sandwich immunoassay, 1 to 2 h incubation, absolute IC50
Summary of the method: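 PC3 cells exposed to compound for 1-2 h at 37 °C (0.1% DMSO; up to 10 μM), lysed, and P-AKT-S473 quantified by electrochemiluminescent sandwich immunoassay. Percent inhibition normalised to DMSO wells with background subtracted. Absolute IC50 from dose-response curves, averaged over 2 experiments.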

[2] = tested on: P. falciparum (highly chloroquine-resistant strain Fcm29-Cameroon); experiment: Antimalarial activity test (radioactive micromethod of Desjardins, tritiated hypoxanthine incorporation); assay type: cell-based; conditions: Plasmodium falciparum, Erythrocyte, infected human erythrocytes, 48 h
Summary of the method: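 P. falciparum cultured in infected human erythrocytes (2% haematocrit, 1.5% parasitaemia) in RPMI 1640 with 5% human serum and 1% DMSO, exposed to compound for 48 h at 37 °C, 5% CO2. Tritiated hypoxanthine added at 24 h; growth inhibition versus drug-free incorporation, reported as % at 1 μM and 0.1 μM.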

For `COc1ccc(CCN2c3nc(N4CCOCC4)cc(=O)n3C[C@@]2(C)C(F)(F)F)cc1` [Example 1, (S)-1-[2-(4-Methoxyphenyl)ethyl]-2-methyl-7-morpholin-4-yl-2-trifluoromethyl-2,3-dihydro-1H-imidazo[1,2-a]pyrimidin-5-one], the IC50 [1] was 3 nM, the inhibition at 0.1 µM ([2]; 0.1 μM) was 67% and the inhibition at 1 µM ([2]; 1 μM) was 93%.
